Assay results taken from patent EP3822285A1, “VARIANT NISIN PEPTIDES” (University College Cork-National University of Ireland, Cork, priority 2019, dated 2021).
Values after ≈ are worked out from the molar mass of the structure shown. Values joined by “and” are separate entries in the source; they are usually repeats but may differ in a detail not shown here. Identical values can stand only once. Marks after values point to notes of the source that are not given here.

Tests used:
Type in all cases: cell-based
T. brockianus = test: Minimum inhibitory concentration assay (Thermus); conditions: pure peptide, mean of triplicate assays
Description: (§1) Minimum inhibitory concentration (MIC) determinations for gram negative Thermus strains were carried out in triplicate in round bottom microtitre plates (Corning). 96 well microtitre plates were pre-treated with bovine serum albumin (BSA) prior to addition of the peptides. Briefly, to each well of the microtire plates 200 µl of d.H2O (filtered with 0.2 µm filter) containing 1% (w/w) BSA was added and incubated at 37°C for 30 mins. The wells were washed with 200 µl of IX phosphate buffered saline (PBS) for 2 times after removing 1% BSA d.H2O. 100 µl of growth media, i.e., Castenholz, was added to each well. […] Target strains were grown overnight as per conditions mention above, 0.5 ml of overnight was subcultured in to 10 mls of fresh Castenholz medium and allowed to grow to an OD600 of ∼0.5. 20µl of this subculture was added to 980µl of media, 150µl of this dilution added to 14.85 ml of growth media. 100µl of this dilution added to each well resulting in a final inoculum of ∼10^5 cfu/ml in 200µl. The plates were incubated at 55° C for 3 days and the MIC was determined as the lowest concentration at which no growth was visible.
(§2) The bioactivity of cell-free supernatant can be influenced by altered diffusion rates, solubility, production or specific activity. To determine to what extent, if any, the bioactivity noted above is due to increased specific activity, nisin A (control) and the derivatives were purified and their molecular weights confirmed by MALDI TOF mass spectrometry (Table: 6) (Figure: 4). These peptides were used to perform minimum inhibitory concentration assays against six Thermus strains, i.e., T. thermophilus HB27, T. scotoductus SE-1, T. rehai, T. oshimai, T. aquaticus and T. brockianus.

T. rehai = test: Minimum inhibitory concentration assay (Thermus); conditions: for MIC: pure peptide, mean of triplicate assays
Description: as §1, §2

T. oshimai = test: Minimum inhibitory concentration assay (Thermus); conditions: pure peptide, mean of triplicate assays
Description: as §1, §2

T. thermophilus HB27 = test: Minimum inhibitory concentration assay (Thermus); conditions: for MIC: pure peptide, mean of triplicate assays
Description: as §1, §2

T. aquaticus = test: Minimum inhibitory concentration assay (Thermus); conditions: pure peptide, mean of triplicate assays
Description: as §1, §2

T. scotoductus SE-1 = test: Minimum inhibitory concentration assay (Thermus); conditions: for MIC: pure peptide, mean of triplicate assays
Description: as §1, §2

Thermus scotoductus SE-1 = test: Agar diffusion assay with cell free supernatant of producing strains; conditions: zone diameter relative to Nisin A wild type (100)
Description: (§3) Agar diffusion assays were carried out in triplicate using nisin producing and indicator (T. thermophilus HB27 and T. scotoductus Se-1) strains. Both the producer and indicator strains were cultured as per conditions described above. One ml of overnight culture of indicators were added to 50ml of molten Castenholz agar, briefly swirled and poured. Wells were made using sterile glass pipette. To generate cell free supernatant from nisin producing strains, 10 mls of overnight cultures of the strains were centrifuged at 950g for 20 mins. The cell free supernatant was transferred to a sterile tube. 50 µl of cell free supernatant was added to wells described above. Plates were incubated at 55°C for 3 days and the zone of clearance measured.
(§4) The cell free supernatant of nisin A and nisin variant producing L. lactis was used to determine the bioactivity of these lantibiotics against T. thermophilus HB27 and T. scotoductus SE-1 using agar diffusion assays, with the zone of clearance representing the bioactivity of the producing strain (i.e., representing a combination of the amount of the peptide produced and the specific activity of that peptide). […] Among the variants tested were those with altered N-terminal domains. The N-terminal domain of nisin is important for binding with the pyrophosphate moiety of lipid II to mediate pore formation in the cell membrane. Lysine (K) at position 12, which serves as a small flexible region between ring B and C, and is one of among the 5 positively charged residues (K12, K22, K34, H27, […]) of nisin A that contributes to its cationic nature and its attraction to the cell envelope.

[1] = test system: Thermus thermophilus HB27; test: as above; conditions: zone diameter relative to Nisin A wild type (100)
Description: as §3, §4

Compound	MIC (T. brockianus)	MIC (T. rehai)	MIC (T. oshimai)	MIC (T. thermophilus HB27)	MIC (T. aquaticus)	fold better activity than nisin A (T. scotoductus SE-1)	MIC (T. scotoductus SE-1)	% of wild type (Thermus scotoductus SE-1)	% difference [1]	fold better activity than nisin A (T. rehai)	fold better activity than nisin A (T. thermophilus HB27)
C=C(NC(=O)[C@@H](NC(=O)[C@H](Cc1c[nH]cn1)NC(=O)[C@@H](NC(=O)[C@H](CO)NC(=O)[C@@H]1CS[C@@H](C)[C@H]2NC(=O)[C@H](C)NC(=O)[C@H](NC(=O)[C@H](CCCCN)NC(=O)[C@H](CCSC)NC(=O)[C@H](CC(N)=O)NC(=O)[C@@H]3CS[C@@H](C)[C@@H](NC(=O)[C@H](CO)NC(=O)[C@@H]4CS[C@@H](C)[C@@H](NC(=O)[C@@H]5CSC[C@@H](NC(=O)/C(=C/C)NC(=O)[C@@H](N)[C@@H](C)CC)C(=O)N[C@@H]([C@@H](C)CC)C(=O)NC(=C)C(=O)N[C@@H](CC(C)C)C(=O)N5)C(=O)N5CCC[C@H]5C(=O)NCC(=O)N4)C(=O)NCC(=O)N[C@@H](C)C(=O)N[C@@H](CC(C)C)C(=O)N[C@@H](CCSC)C(=O)NCC(=O)N3)[C@H](C)SC[C@H](NC2=O)C(=O)N[C@@H](Cc2c[nH]cn2)C(=O)N1)[C@@H](C)CC)C(C)C)C(=O)N[C@@H](CCCCN)C(=O)O [K12S]	0.0312 µM (≈ 0.103 µg/mL)	0.0156 µM (≈ 0.0517 µg/mL)	0.0156 µM (≈ 0.0517 µg/mL)	0.0312 µM (≈ 0.103 µg/mL)	0.0312 µM (≈ 0.103 µg/mL)	2 fold	0.0312 µM (≈ 0.103 µg/mL)	123%	125%	–	–
C=C(NC(=O)[C@@H](NC(=O)[C@H](Cc1c[nH]cn1)NC(=O)[C@@H](NC(=O)[C@H](CO)NC(=O)[C@@H]1CS[C@@H](C)[C@H]2NC(=O)[C@H](C)NC(=O)[C@H](NC(=O)[C@H](CCCCN)NC(=O)[C@H](CCSC)NC(=O)[C@H](CC(N)=O)NC(=O)[C@@H]3CS[C@@H](C)[C@@H](NC(=O)[C@@H](NC(=O)[C@@H]4CS[C@@H](C)[C@@H](NC(=O)[C@@H]5CSC[C@@H](NC(=O)/C(=C/C)NC(=O)[C@@H](N)[C@@H](C)CC)C(=O)N[C@@H]([C@@H](C)CC)C(=O)NC(=C)C(=O)N[C@@H](CC(C)C)C(=O)N5)C(=O)N5CCC[C@H]5C(=O)NCC(=O)N4)C(C)C)C(=O)NCC(=O)N[C@@H](C)C(=O)N[C@@H](CC(C)C)C(=O)N[C@@H](CCSC)C(=O)NCC(=O)N3)[C@H](C)SC[C@H](NC2=O)C(=O)N[C@@H](Cc2c[nH]cn2)C(=O)N1)[C@@H](C)CC)C(C)C)C(=O)N[C@@H](CCCCN)C(=O)O [K12V]	0.0156 µM (≈ 0.0519 µg/mL)	0.0039 µM (≈ 0.013 µg/mL)	0.0156 µM (≈ 0.0519 µg/mL)	12.9 µg/L and 0.0039 µM	0.0156 µM (≈ 0.0519 µg/mL)	2 fold	103.9 µg/L and 0.0312 µM	125* (0.04) %	145* (0.004) %	2 fold	2 fold
C=C(NC(=O)[C@@H](NC(=O)[C@H](Cc1c[nH]cn1)NC(=O)[C@@H](NC(=O)[C@H](CO)NC(=O)[C@@H]1CS[C@@H](C)[C@H]2NC(=O)[C@H](C)NC(=O)[C@H](NC(=O)[C@H](CCCCN)NC(=O)[C@H](CCSC)NC(=O)[C@H](CO)NC(=O)[C@@H]3CS[C@@H](C)[C@@H](NC(=O)[C@H](CCCCN)NC(=O)[C@@H]4CS[C@@H](C)[C@@H](NC(=O)[C@@H]5CSC[C@@H](NC(=O)/C(=C/C)NC(=O)[C@@H](N)[C@@H](C)CC)C(=O)N[C@@H]([C@@H](C)CC)C(=O)NC(=C)C(=O)N[C@@H](CC(C)C)C(=O)N5)C(=O)N5CCC[C@H]5C(=O)NCC(=O)N4)C(=O)NCC(=O)N[C@@H](C)C(=O)N[C@@H](CC(C)C)C(=O)N[C@@H](CCSC)C(=O)NCC(=O)N3)[C@H](C)SC[C@H](NC2=O)C(=O)N[C@@H](Cc2c[nH]cn2)C(=O)N1)[C@@H](C)CC)C(C)C)C(=O)N[C@@H](CCCCN)C(=O)O [N20S]	0.0156 µM (≈ 0.0519 µg/mL)	0.00195 µM (≈ 0.00649 µg/mL)	0.000975 µM (≈ 0.00324 µg/mL)	0.0039 µM (≈ 0.013 µg/mL)	0.0078 µM (≈ 0.026 µg/mL)	–	0.3125 µM (≈ 1.04 µg/mL)	112%	119%	–	–
C=C(NC(=O)[C@@H](NC(=O)[C@H](Cc1c[nH]cn1)NC(=O)[C@@H](NC(=O)[C@H](CO)NC(=O)[C@@H]1CS[C@@H](C)[C@H]2NC(=O)[C@H](C)NC(=O)[C@H](NC(=O)[C@H](CCCCN)NC(=O)[C@H](CCSC)NC(=O)[C@H](CC(N)=O)NC(=O)[C@@H]3CS[C@@H](C)[C@@H](NC(=O)[C@@H](NC(=O)[C@@H]4CS[C@@H](C)[C@@H](NC(=O)[C@@H]5CSC[C@@H](NC(=O)/C(=C/C)NC(=O)[C@@H](N)[C@@H](C)CC)C(=O)N[C@@H]([C@@H](C)CC)C(=O)NC(=C)C(=O)N[C@@H](CC(C)C)C(=O)N5)C(=O)N5CCC[C@H]5C(=O)NCC(=O)N4)[C@@H](C)O)C(=O)NCC(=O)N[C@@H](C)C(=O)N[C@@H](CC(C)C)C(=O)N[C@@H](CCSC)C(=O)NCC(=O)N3)[C@H](C)SC[C@H](NC2=O)C(=O)N[C@@H](Cc2c[nH]cn2)C(=O)N1)[C@@H](C)CC)C(C)C)C(=O)N[C@@H](CCCCN)C(=O)O [K12T]	0.0625 µM (≈ 0.208 µg/mL)	0.0156 µM (≈ 0.0519 µg/mL)	0.0312 µM (≈ 0.104 µg/mL)	0.0156 µM (≈ 0.0519 µg/mL)	0.0312 µM (≈ 0.104 µg/mL)	–	0.0625 µM (≈ 0.208 µg/mL)	140* (0.001) %	148* (.001) %	–	–
C=C(NC(=O)[C@@H](NC(=O)[C@H](Cc1c[nH]cn1)NC(=O)[C@@H](NC(=O)[C@H](CO)NC(=O)[C@@H]1CS[C@@H](C)[C@H]2NC(=O)[C@H](C)NC(=O)[C@H](NC(=O)[C@H](CCCCN)NC(=O)[C@H](CCSC)NC(=O)[C@H](CC(N)=O)NC(=O)[C@@H]3CS[C@@H](C)[C@@H](NC(=O)[C@H](CCSC)NC(=O)[C@@H]4CS[C@@H](C)[C@@H](NC(=O)[C@@H]5CSC[C@@H](NC(=O)/C(=C/C)NC(=O)[C@@H](N)[C@@H](C)CC)C(=O)N[C@@H]([C@@H](C)CC)C(=O)NC(=C)C(=O)N[C@@H](CC(C)C)C(=O)N5)C(=O)N5CCC[C@H]5C(=O)NCC(=O)N4)C(=O)NCC(=O)N[C@@H](C)C(=O)N[C@@H](CC(C)C)C(=O)N[C@@H](CCSC)C(=O)NCC(=O)N3)[C@H](C)SC[C@H](NC2=O)C(=O)N[C@@H](Cc2c[nH]cn2)C(=O)N1)[C@@H](C)CC)C(C)C)C(=O)N[C@@H](CCCCN)C(=O)O [K12M]	0.0625 µM (≈ 0.21 µg/mL)	0.0078 µM (≈ 0.0262 µg/mL)	0.0156 µM (≈ 0.0524 µg/mL)	0.0156 µM (≈ 0.0524 µg/mL)	0.0156 µM (≈ 0.0524 µg/mL)	–	0.125 µM (≈ 0.42 µg/mL)	118%	118%	–	–
C=C(NC(=O)[C@@H](NC(=O)[C@H](Cc1c[nH]cn1)NC(=O)[C@@H](NC(=O)[C@H](CO)NC(=O)[C@@H]1CS[C@@H](C)[C@H]2NC(=O)[C@H](C)NC(=O)[C@H](NC(=O)[C@H](CCCCN)NC(=O)[C@H](CCSC)NC(=O)[C@@H]3CCCN3C(=O)[C@@H]3CS[C@@H](C)[C@@H](NC(=O)[C@H](CCCCN)NC(=O)[C@@H]4CS[C@@H](C)[C@@H](NC(=O)[C@@H]5CSC[C@@H](NC(=O)/C(=C/C)NC(=O)[C@@H](N)[C@@H](C)CC)C(=O)N[C@@H]([C@@H](C)CC)C(=O)NC(=C)C(=O)N[C@@H](CC(C)C)C(=O)N5)C(=O)N5CCC[C@H]5C(=O)NCC(=O)N4)C(=O)NCC(=O)N[C@@H](C)C(=O)N[C@@H](CC(C)C)C(=O)N[C@@H](CCSC)C(=O)NCC(=O)N3)[C@H](C)SC[C@H](NC2=O)C(=O)N[C@@H](Cc2c[nH]cn2)C(=O)N1)[C@@H](C)CC)C(C)C)C(=O)N[C@@H](CCCCN)C(=O)O [N20P]	0.0625 µM (≈ 0.209 µg/mL)	0.0625 µM (≈ 0.209 µg/mL)	0.0625 µM (≈ 0.209 µg/mL)	0.0156 µM (≈ 0.0521 µg/mL)	0.0156 µM (≈ 0.0521 µg/mL)	–	0.125 µM (≈ 0.417 µg/mL)	115%	97%	–	–
